Source: patent US9884012B2, “Use of PEDF-derived polypeptides for promoting muscle or tendon regeneration or arteriogenesis” (MacKay Memorial Hospital, priority 2012, dated 2018)

Tests used:
[1] = test system: soleus muscle (muscle fibers, satellite cells); test: bupivacaine myonecrosis model, BrdU and Pax7 labeling of soleus muscle; type: in vivo, Sprague-Dawley rats; settings: soleus muscle after bupivacaine injection; for BrdU Labeling Index (%): 50 μl sustained-release formulation (Bolus: bolus 29-mer), single intramuscular injection; for Pax7 Labeling Index (%): sustained-release formulation (Bolus: bolus 29-mer)
Method: De-paraffinized tissue sections were blocked with 10% goat serum for 1 hour. Staining was done using primary antibodies against BrdU (1:50 dilution; GTX42641) or type I collagen 1A1 (1:50 dilution) overnight at 4° C., followed by incubation with the appropriate peroxidase-labeled donkey immunoglobulin for 30 min and then with chromogen substrate (3,3′-diaminobenzidine) for 2 min before counterstaining with hematoxylin. Quantification was estimated based on high quality images (1208×960 pixels) captured using a Nikon Eclipse 80i light microscope.
For the detection of cell expansion, BrdU was reconstituted in DMSO as stock (80 mM). 10 μl of BrdU mixed with 90 μl of PBS was intraperitoneally injected into the mouse 16 hours prior to euthanasia. Also, 150 μl of BrdU mixed with 350 μl of PBS was intraperitoneally injected into the rat 16 hours prior to euthanasia. DNA synthesis was assessed by BrdU labeling with anti-BrdU antibodies.
De-paraffinized tissue sections or 4% paraformaldehyde fixed rabbit tendon stem cells (TSCs) were blocked with 10% goat serum and 5% BSA for 1 hour. Double staining was done using primary antibodies against α-SMA (1:100 dilution), IB4 (5 μg/ml), Pax7 (1:100 dilution), nucleostemin (1:100 dilution) and type I collagen 1A1 (1:50) at 37° C. for 2 hours, followed by incubation with the appropriate rhodamine- or FITC-conjugated donkey IgG for 1 hour at RT. Nuclei were located by counterstaining with Hoechst 33258 for 7 minutes. Images were captured using a Zeiss epifluorescence microscope with a CCD camera.
(§1) To investigate the effects of the present PEDF peptides on muscle regeneration, a rat myonecrosis model of a single injection of bupivacaine into the soleus muscle was employed. Adult 10-week-old male Sprague-Dawley rats (initial body weight=312±11 g) were anesthetized by an intraperitoneal injection of a xylazine (10 mg/kg). Then, the soleus muscle was injured by unilaterally injecting 0.5 ml bupivacaine (AstraZeneca) with a disposable syringe with a 26-gauge needle. Briefly, the needle was inserted into the distal portion of the soleus muscle and then receded longitudinally to the proximal portion accompanying evenly bupivacaine solution injection. The solution was then injected throughout the entire length of the muscle as the needle was slowly withdrawn.
After bupivacaine injection, rats were divided equally (n=10/group) into four experimental groups and treated as follows. […]
Muscle regeneration involves proliferation of muscle fibers, or muscle cells. […] Detailed assay procedures are as described in “Materials and Methods.” The level of BrdU-positive cells was expressed as labeling index (%), which was computed as the number of labeled cells divided by the total number of cells. […]

[2] = test system: soleus muscle; test: bupivacaine myonecrosis model, muscle fiber size (minimal Feret's diameter); type: in vivo, Sprague-Dawley rats; settings: 14 days after injury; for diameters of muscle fibers on average versus blank or bolus control group: in words
Method: The muscle fiber size was determined on H&E-stained muscle cross section and quantified using the minimum distance of parallel tangents at opposing particle borders (minimal “Feret's diameter”). Pictures were captured using a Nikon Eclipse 80i light microscope, and the minimal Feret's diameter was measured using the Image-Pro Plus 4.5.1 software (Media Cybernetics). Normalization of the number of fibers in each fiber Feret class of 5 μm was based on the total number of muscle fibers in each picture.
as §1
After bupivacaine injection, rats were divided equally (n=10/group) into four experimental groups and treated as follows. In the blank control group, the mice were treated with 50 μl of blank alginate gel. In the treatments groups, the mice received 50 μl of the sustained-release formulation (29-mer or 20-mer). The mice in the bolus control group received the bolus formulation (29-mer). Treatments were applied by way of a single intramuscular injection to the soleus muscle immediately after the bupivacaine perfusion.
In the later stage of muscle regeneration, newly generated muscle fibers start to gain size. Muscle specimens were collected at 14 days after injury, and respective fiber diameters were measured in accordance with the procedure set forth in the section of “Materials and Methods.” Results were summarized in FIG. 9.

Sequence | BrdU Labeling Index (%) [1] | Pax7 Labeling Index (%) [1] | diameters of muscle fibers on average versus blank or bolus control group [2] | muscle fibers with a minimal Feret's diameter between 15-25 μm ([2]; sustained-release formulation)
SLGAEQRTESIIHRALYYDL [20-mer, synthetic peptide corresponding to residues 93-112 of human PEDF] | 13.6 ± 3.0% | 14.6 ± 1.9% | larger | about 56.6%
SLGAEQRTESIIHRALYYDLISSPDIHGT [29-mer, synthetic peptide corresponding to residues 93-121 of human PEDF] | 15.4 ± 1.7% | 16.2 ± 2.0% | larger | –
